Values of other authors, collected in publication PMC7662321, “Andrographolide and Its 14-Aryloxy Analogues Inhibit Zika and Dengue Virus Infection” (Molecules, 2020).
Read-outs that look alike come from different tables or passages of the source.

Experiments:
[1] = test system: DENV 2; set-up: method as in PMID 30396090; details: HepG2 cells; read-out: EC50 towards DENV 2; cited from earlier work
[2] = test system: DENV 2; set-up: method as in PMID 30396090; details: HeLa cells; read-out: EC50 towards DENV 2; cited from earlier work
[3] = set-up: method as in PMID 11081986; details: cited from earlier work

Structure (SMILES): C=C1CC[C@@H]2[C@](C)(CO)[C@H](O)CC[C@@]2(C)[C@@H]1C/C=C1/C(=O)OC[C@H]1O [Andrographolide]
- EC50 [1]: 21.3 µM
- EC50 [2]: 22.7 µM
- bioavailability [3]: relatively poor
